Source: EP4696689A1, “SALT FORM AND CRYSTAL FORM OF CHIRAL HETEROCYCLIC COMPOUND HAVING HEDGEHOG PATHWAY ANTAGONIST ACTIVITY” (Suzhou Kintor Pharmaceuticals, Inc., priority 2023, dated 2024)
Like-named read-outs stand apart in the source and are kept apart here.

Experiments:
[1] = hygroscopicity evaluation by dynamic vapor sorption (DVS); format: physicochemical
Method: The DVS curves were collected on a DVS Intrinsic from SMS (Surface Measurement Systems).The relative humidity at 25°C was corrected with the deliquescence points of LiCl, Mg (NO3)2 and KCl.

[2] = dynamic solubility in water and three biological solvents; format: physicochemical; conditions: 37°C, feed 5 mg/ml, read-out: S: solubility
Method: Finally, the volume is fixed with purified water.
(§1) 0.17 g of sodium dihydrogen phosphate (NaH2PO4, anhydrous), 0.021 g of sodium hydroxide and 0.31 g of sodium chloride were weighed into a 50 mL volumetric flask respectively, about 48 mL of purified water was added for dissolution, the pH was adjusted to exactly 6.5 with 1M hydrochloric acid or 1M sodium hydroxide, and the volume was fixed with purified water. 0.11 g of SIF powder was then added, stirred and sonicated to completely dissolve the powder. The solution can be used only after being placed at room temperature for two hours to reach equilibrium.
as §1, with “0.41 mL” for “0.17 g”, “glacial acetic acid, 0.20” for “sodium dihydrogen phosphate (NaH2PO4, anhydrous), 0.021”, “0.59” for “0.31”, “respectively, and” for “respectively,”, “5.0” for “6.5”, “0.56” for “0.11”
The solubility results of the two samples in SGF, FASSIT and FeSSIF are similar. […] Table 4-1 Summary of the dynamic solubility test results

[3] = solid state stability (XRPD, HPLC, chiral purity); format: physicochemical
Method: The purity test, the dynamic solubility and the stability test are tested by the Agilent 1260/1100 high performance liquid chromatograph, and the analysis conditions and chiral purity test analysis conditions of the high performance liquid chromatography test are respectively as follows.
After placing the amorphous free base and fumarate crystal form F of the compound of formula (I) at 25°C/60% RH and 40°C/75% RH for 1 week, the physical and chemical stability of the sample is detected by XRPD and HPLC (at the same time the chiral purity of the sample is tested). […] Table 4-2 Solid Stability Evaluation Summary

[4] = suspension competition experiment (thermodynamic stability of fumarate crystal forms); format: physicochemical; conditions: from room temperature to 50°C
Method: To study the thermodynamic stability relationship among the crystal forms of the fumarate salt, a suspension competition experiment at room temperature and 50°C is performed on the fumarate salt anhydrous crystal forms A, B, C and F. […] Table 3-1 Summary of Suspension Contention Tests

Gli1 Gene = experiment: Gli1 mRNA expression in tumor tissues (RT-qPCR), Shh signaling pathway analysis; format: in vivo, CB-17/SCID mice; conditions: for mRNA Expression Level of Glil Gene: tumor tissue 2 hours after last administration, GAPDH internal reference
Excerpt: Table 7-1 The Grouping and Drug Administration Plan
Primary tumor cells were extracted from Math1-Cre/Ptch1 ^C/C mice with spontaneous medulloblastoma and subcutaneously inoculated into CB-17/SCID mice to establish a xenograft model of medulloblastoma.
CB-17/SCID mice were subcutaneously injected with primary extracted medulloblastoma cells. After 3-4 weeks, a subset of mice developed tumors with volumes ranging from 150 to 300 mm^3.
From these mice, 25 tumor-bearing mice with uniform tumor sizes (with CV < 30%, CV = SD/Mean) were selected and randomly divided into 5 experimental groups (Vehicle, GDC-0449-10 mg/kg, Compound A-10 mg/kg, Compound A-3 mg/kg, Compound A-1 mg/kg) according to Table 2. Each group consisted of 5 mice per cage. Administration began on the day after grouping. The administration period was 3 days, with a frequency of BID. Tumor tissues were collected 2 hours after the last administration, and the mRNA expression level of the Glil gene in the tumor tissues was analyzed by RT-qPCR.
The tumor tissues were lysed by RNAiso Plius (TaKaRa, 108-95-2) to extractand RNA was then extracted using chloroform extraction and isopropanol precipitation methods. Subsequently, the mRNA level of the Glil gene was detected using a real-time fluorescence quantitative PCR instrument (ABI 7500), with GAPDH serving as the internal reference for quantitative analysis.
Experimental data in all tables are presented as "mean ± standard deviation" with error bars in figures representing standard error of the mean (SEM). Student's t-test was used to compare statistical differences in Glil gene mRNA expression levels in tumor tissues among treatment groups. All data were analyzed using GraphPad Prism 5.0. P-value <0.05 was considered statistically significant. ***, P<0.001; ##, P<0.01.
Glil is a target gene of the Hedgehog signaling pathway, and its mRNA expression level reflects the activation status of the hedgehog signaling pathway.

[5] = SCID tumor-bearing mice, i.g. BID × 3 days
[6] = pharmacokinetic study in mice; conditions: same dose, intragastric administration
[7] = pH 1.8, simulated gastric fluid, thermodynamic from solid, SGF
[8] = pH 5, thermodynamic from solid, FeSSIF
[9] = pH 6.5, thermodynamic from solid, FaSSIF
[10] = water, thermodynamic from solid, H2O

Cc1cnc(-c2cc(N3CCc4nc(N5CCC(O)CC5)ncc4[C@H]3C)ncc2Cl)c(C)c1 [Fumarate crystal form F]
moisture adsorption ([1]; 25°C/80% RH, listed as fumarate crystal form F of the compound of formula (I)): 0.3% | Water adsorption (25°C/80%RH) ([1]; 25°C/80%RH): 0.3 | solubility at 1 h [2, 7]: 3600 µg/mL | solubility at 2 h [2, 7]: 3500 µg/mL | solubility at 4 h [2, 7]: 3600 µg/mL | solubility at 24 h [2, 7]: 3500 µg/mL | solubility at 1 h [2, 8]: 2500 µg/mL | solubility at 2 h [2, 8]: 2800 µg/mL | solubility at 4 h [2, 8]: 3100 µg/mL | solubility at 24 h [2, 8]: 3100 µg/mL | solubility at 1 h [2, 9]: 220 µg/mL | solubility at 2 h [2, 9]: 210 µg/mL | solubility at 4 h [2, 9]: 230 µg/mL | solubility at 24 h [2, 9]: 210 µg/mL | solubility at 1 h [2, 10]: 110 µg/mL | solubility at 2 h [2, 10]: 130 µg/mL | solubility at 4 h [2, 10]: 140 µg/mL | solubility at 24 h [2, 10]: 150 µg/mL | Chiral purity (%) ([3]; 25°C/60%RH_1w): 98.6% | Purity (Area%) ([3]; 25°C/60%RH_1w): 99.7 Area% | Purity/Initial purity (%) ([3]; 25°C/60%RH_1w): 100.1% | Chiral purity (%) ([3]; 40°C/75%RH_1w): 98.6% | Purity (Area%) ([3]; 40°C/75%RH_1w): 99.6 Area% | Purity/Initial purity (%) ([3]; 40°C/75%RH_1w): 100.0% | Chiral purity (%) ([3]; Start): 98.6% | Purity (Area%) ([3]; Start): 99.6 Area% | thermodynamic stability among anhydrous crystal forms A, B, C and F [4]: most thermodynamically stable | mRNA Expression Level of Glil Gene (Gli1 Gene; 1 mg/kg i.g. BID × 3 days): 0.609 ± 0.140 | mRNA Expression Level of Glil Gene (Gli1 Gene; 3 mg/kg i.g. BID × 3 days): 0.359 ± 0.113 | mRNA Expression Level of Glil Gene (Gli1 Gene; 10 mg/kg i.g. BID × 3 days): 0.045 ± 0.035 | inhibition of Hedgehog signaling compared with the high-dose group of GDC-0449 (10 mg/kg) (Gli1 Gene; high-dose group (10 mg/kg)): significantly stronger inhibition | abnormal behaviors or animal deaths during the administration period [5]: no abnormal behaviors or animal deaths | Cmax higher than that of the positive drug GDC-0449 [6]: about 1 fold
